Test results as given in patent US20240254138A1, “TRICYCLIC PYRIMIDINES AS CYCLIN-DEPENDENT KINASE 7 (CDK7) INHIBITORS” (JANSSEN PHARMACEUTICA NV, priority 2021, published 2024).
Like-named read-outs stand apart in the source and are kept apart here.

What was measured:
[1] = tested on: RNA Polymerase II Serine 5 phosphorylation (Rpb1 CTD, downstream substrate of CDK7) in A549 cells; assay: Imaging-based cellular RNA PolII Ser5 phosphorylation assay in A549 cells; format: cell-based, human; conditions: wild-type CDK7, RNA PolII Ser5 phosphorylation, averaged over all measurements; for IC50: Homo sapiens, A549, A549 cells, read-out: CDK7_A549 Wild-type CDK7 (pIC50) (converted)
Method in brief: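 A549 cells, seeded 1000/well in DMEM with 1% FBS and cultured 20 h, were treated with compound for 3 h at 37 °C. Ser5-phospho-Rpb1 CTD detected by immunofluorescence imaging after fixation and methanol permeabilization; IC50 from curve fit normalized to DMSO and 10 μM reference-compound controls.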

[2] = tested on: RNA Polymerase II Serine 5 phosphorylation in A549 cells overexpressing CDK7-mutant (C312S); assay: Imaging-based cellular RNA PolII Ser5 phosphorylation assay in A549 cells overexpressing CDK7-mutant (C312S); format: cell-based, human; conditions: RNA PolII Ser5 phosphorylation, averaged over all measurements; for IC50: Homo sapiens, A549, A549 cells overexpressing CDK7-mutant (C312S), read-out: CDK7_A549 mutant hCDK7(pIC50) (converted)
Method in brief: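 A549 cells overexpressing CDK7 C312S (with endogenous wild-type CDK7) were treated with compound for 3 h at 37 °C in 1% FBS medium. Phospho-Rpb1 CTD Ser5 was immunostained after fixation and imaged. IC50 came from curve fit of % control, normalised to DMSO and 10 μM reference-compound controls.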

[3] = target: CDK7/cyclinH/MAT1 trimeric complex (Homo sapiens, UniProt P50613); assay: In vitro CDK7 assay, potency of irreversible covalent inhibitors (kinact/KI), coupled PK/LDH ADP readout at 340 nm
[4] = CDK7 (20 nM enz.) (KI, μM), 20 nM enzyme
[5] = read-out: CDK7 (20 nM enz.) (kinact, s^−1), 20 nM enzyme
[6] = read-out: CDK7 (20 nM enz.) (kinact/KI, M^−1*s^−1), 20 nM enzyme
[7] = read-out: CDK7 (20 nM enz.) (kobs/[I], M^−1*s^−1), 20 nM enzyme
[8] = CDK7 (KI(μM)), […], 1 mM ATP, room temperature, averaged values over all measurements
[9] = read-out: CDK7 (kinact, s^−1), kinact = maximal rate of inactivation, 1 mM ATP, room temperature, averaged values over all measurements
[10] = read-out: CDK7 (kinact/KI, M^−1*s^−1), potency of irreversible covalent inhibitors, 1 mM ATP, room temperature, averaged values over all measurements

Chain of CDK7/cyclinH/MAT1 trimeric complex (P50613 whole entry): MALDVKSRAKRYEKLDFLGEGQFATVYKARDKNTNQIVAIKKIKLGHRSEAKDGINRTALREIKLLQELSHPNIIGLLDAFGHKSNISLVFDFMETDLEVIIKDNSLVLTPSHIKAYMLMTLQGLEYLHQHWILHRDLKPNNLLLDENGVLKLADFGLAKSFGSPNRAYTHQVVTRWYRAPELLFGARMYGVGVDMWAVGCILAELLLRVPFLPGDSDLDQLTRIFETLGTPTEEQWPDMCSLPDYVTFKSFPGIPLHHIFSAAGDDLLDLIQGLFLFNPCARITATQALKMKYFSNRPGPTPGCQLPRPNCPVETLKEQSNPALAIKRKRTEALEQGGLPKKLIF
Chain of CDK7/cyclinH/MAT1 trimeric complex (P51946 whole entry partner): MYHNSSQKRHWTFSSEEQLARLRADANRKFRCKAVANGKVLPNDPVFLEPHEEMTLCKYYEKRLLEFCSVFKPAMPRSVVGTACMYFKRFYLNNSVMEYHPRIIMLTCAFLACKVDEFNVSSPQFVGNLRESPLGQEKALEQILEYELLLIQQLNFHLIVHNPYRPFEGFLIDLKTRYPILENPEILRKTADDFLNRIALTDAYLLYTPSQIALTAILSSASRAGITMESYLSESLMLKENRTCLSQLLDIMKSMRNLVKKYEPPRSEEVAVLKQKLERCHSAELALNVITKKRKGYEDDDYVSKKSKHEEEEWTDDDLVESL
Chain of CDK7/cyclinH/MAT1 trimeric complex (P51948 whole entry partner): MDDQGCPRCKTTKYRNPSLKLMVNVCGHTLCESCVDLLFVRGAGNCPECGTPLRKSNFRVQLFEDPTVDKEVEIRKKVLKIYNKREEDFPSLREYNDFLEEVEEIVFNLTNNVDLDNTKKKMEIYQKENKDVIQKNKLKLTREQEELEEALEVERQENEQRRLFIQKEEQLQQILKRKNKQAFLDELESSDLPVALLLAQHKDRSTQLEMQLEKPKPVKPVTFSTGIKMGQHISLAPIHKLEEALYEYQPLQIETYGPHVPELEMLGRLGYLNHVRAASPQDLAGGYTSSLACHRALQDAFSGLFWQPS

SMILES | IC50 [1] [nM] | IC50 [2] [nM] | Ki [3, 4] [µM] | kinact [3, 5] [s⁻¹] | kinact/KI [3, 6] [M⁻¹ s⁻¹] | kinact/KI [3, 7] [M⁻¹ s⁻¹] | Ki [3, 8] [µM] | kinact [3, 9] [s⁻¹] | kinact/KI [3, 10] [M⁻¹ s⁻¹] | CDK7_A549 Wild-type CDK7 (pIC50) ([1]; A549 cells) | CDK7_A549 mutant hCDK7(pIC50) ([2]; A549 cells overexpressing CDK7-mutant (C312S)) | CDK7 (20 nM enz.) (kinact, s^−1) ([3]; 20 nM enzyme) [s⁻¹] | CDK7 (20 nM enz.) (kinact/KI, M^−1*s^−1) ([3]; 20 nM enzyme) [M⁻¹ s⁻¹]
CC#CC(=O)N1CCN(C2CN(c3cc4c(c(C)n3)OCc3c(N5CCOCC5)ccnc3N4)C2)CC1 [Compound 394] | 339 | > 10000 | 0.313 | 1.25e-05 | 39.9 | – | – | – | – | – | – | – | –
C=CC(=O)N1CC(N2CC(c3cc4c(c(C#N)n3)OCc3c(N5CCOCC5)ccnc3N4)C2)C1 [Compound 290] | 295 | > 10000 | 0.0265 | 3.61e-05 | 1360 | – | – | – | – | – | – | – | –
C=CC(=O)N1CC(N2CCC[C@H](c3ccc4c(c3)Nc3nccc(N5CCOCC5)c3CO4)C2)C1 (single isomer, unassigned) [Compound 93] | 447 | > 10000 | 0.0862 | 5.07e-05 | 589 | – | – | – | – | – | – | – | –
C=CC(=O)N1CC(n2cc(-c3cc(C#N)c4c(c3)Nc3nccc(N5CCOCC5)c3CO4)cn2)C1 [Compound 285] | 19.5 | 1860 | – | – | – | 964 | – | – | – | – | – | – | –
C=CC(=O)N1CC(c2nc(C)c(-c3cc(C)c4c(c3)Nc3nccc(C5CCOCC5)c3CO4)c(C)n2)C1 [Compound 129] | 151 | > 10000 | 0.17 | 5.48e-05 | 323 | – | – | – | – | – | – | – | –
C=CC(=O)N1CC(N2CCC(c3ccc4c(c3)Nc3nccc(N5CCOC6(CCOCC6)C5)c3CO4)CC2)C1 [Compound 47] | 871 | > 10000 | – | – | – | – | 0.207 | 0.000125 | 605 | – | – | – | –
C=CC(=O)N1CCC(N2CC(c3cc4c(c(C(F)(F)F)c3)OCc3c(-c5cnn(C)c5)ccnc3N4)C2)CC1 [Compound 102] | 40.7 | 3550 | 0.0268 | 4.38e-05 | 1630 | – | – | – | – | – | – | – | –
C=CC(=O)N1CC(N2CCN(c3cc4c(cn3)OCc3c(N5CCOCC5)ccnc3N4)CC2)C1 [Compound 248] | 174 | > 10000 | 0.307 | 8.51e-05 | 277 | – | – | – | – | – | – | – | –
C=CC(=O)N1CC[C@@H](N2CC(c3cc(C)c4c(c3)Nc3nccc(-c5cnn(C)c5)c3CO4)C2)[C@H](F)C1 (mixture of isomers) [Compound 203] | 81.3 | > 10000 | 0.0523 | 4.19e-05 | 802 | – | – | – | – | – | – | – | –
C=C(C)C(=O)N1CC(N2CCC(c3cc4c(c(C)n3)OCc3c(-c5cnn(C)c5)ccnc3N4)CC2)C1 [Compound 536] | > 10000 | > 10000 | 6.8 | – | – | – | – | – | – | – | – | – | –
CC#CC(=O)N1CCC(N2CC(c3cc4c(c(C)n3)OCc3c(N5CCOCC5)ccnc3N4)C2)CC1 [Compound 313] | 77.6 | 5370 | 0.0471 | 2.02e-05 | 427 | – | – | – | – | – | – | – | –
C=CC(=O)N1CC(N2CCC(c3ccc4c(c3)Nc3nccc(-c5cnc6[nH]ccc6c5)c3CO4)CC2)C1 [Compound 31] | 437 | > 10000 | – | – | – | – | 0.175 | 0.000112 | 638 | – | – | – | –
C=CC(=O)N1CC(N2CC[C@H](c3cc4c(c(C)n3)O[C@H](C)c3c(N5CCOCC5)ccnc3N4)C2)C1 (single isomer, unassigned) [Compound 224] | 3980 | > 10000 | – | – | 3 | – | – | – | – | – | – | – | –
C=CC(=O)N1CCC(N2CCN(c3cc4c(c(C)n3)OCc3c(N5CCOCC5)ccnc3N4)CC2)CC1 [Compound 389] | 141 | > 10000 | 0.0199 | 2.13e-05 | 1070 | – | – | – | – | – | – | – | –
C=CC(=O)N1CCC(N2CC(c3cc4c(c(C#N)n3)O[C@@H](C)c3c(N5CCOCC5)ccnc3N4)C2)CC1 (single isomer, unassigned) [Compound 491] | 479 | > 10000 | 0.403 | 2.48e-05 | 61.4 | – | – | – | – | – | – | – | –
Cc1nc(C2CN(C3CCN(C(=O)/C=C/CN(C)C)CC3)C2)cc2c1OCc1c(-c3cnn(C)c3)ccnc1N2 [Compound 532] | 427 | 10200 | 0.0823 | 1.52e-05 | 184 | – | – | – | – | – | – | – | –
CC#CC(=O)N1CCC(N2CC(c3cc4c(c(-c5ncc[nH]5)n3)OCc3c(N5CCOCC5)ccnc3N4)C2)CC1 [Compound 364] | 162 | > 10000 | – | – | – | 464 | – | – | – | – | – | – | –

SMILES | IC50 [1] [nM] | IC50 [2] [nM] | Ki [3, 4] [µM] | kinact [3, 5] [s⁻¹] | kinact/KI [3, 6] [M⁻¹ s⁻¹] | kinact/KI [3, 7] [M⁻¹ s⁻¹] | Ki [3, 8] [µM] | kinact [3, 9] [s⁻¹] | kinact/KI [3, 10] [M⁻¹ s⁻¹] | CDK7_A549 Wild-type CDK7 (pIC50) ([1]; A549 cells) | CDK7_A549 mutant hCDK7(pIC50) ([2]; A549 cells overexpressing CDK7-mutant (C312S)) | CDK7 (20 nM enz.) (kinact, s^−1) ([3]; 20 nM enzyme) [s⁻¹] | CDK7 (20 nM enz.) (kinact/KI, M^−1*s^−1) ([3]; 20 nM enzyme) [M⁻¹ s⁻¹]
C=CC(=O)N1CC(N2CC[C@@H](c3ccc4c(c3)Nc3nccc(N5CCOCC5)c3CO4)[C@@H](O)C2)C1 (mixture of isomers) [Compound 228] | 178 | > 10000 | 0.129 | 6.25e-05 | 486 | – | – | – | – | – | – | – | –
C=CC(=O)N1CCC(N2CC(c3cc4c(c(C#N)n3)O[C@H](C)c3c(N5CCOCC5)ccnc3N4)C2)CC1 (single isomer, unassigned) [Compound 489] | 58.9 | 3470 | – | – | 305 | – | – | – | – | – | – | – | –
C=CC(=O)N1CC[C@H](N2CC(c3cc(C)c4c(c3)Nc3nccc(C5CCOCC5)c3CO4)C2)C1 (single isomer, unassigned) [Compound 193] | 69.2 | > 10000 | 0.063 | 3.66e-05 | 581 | – | – | – | – | – | – | – | –
CC#CC(=O)N1CC(N2CCC(c3cc4c(c(C)n3)OCc3c(N5CCOCC5)ccnc3N4)N(C)CC2)C1 (stereo not shown) [Compound 373] | 269 | > 10000 | 0.113 | 1.66e-05 | 147 | – | – | – | – | – | – | – | –
CC#CC(=O)N1CC(N2CC(c3cc4c(c(C)n3)O[C@H](C)c3c(N5CCOCC5)ccnc3N4)C2)C1 (single isomer, unassigned) [Compound 355] | 195 | > 10000 | 0.211 | 3.51e-05 | 166 | – | – | – | – | – | – | – | –
C=CC(=O)N1CC[C@@H](N2CC(c3cc(C)c4c(c3)Nc3nccc(N5CCOCC5)c3[C@@H](C)O4)C2)C1 (single isomer, unassigned) [Compound 230] | 20 | 6760 | – | – | – | 791 | – | – | – | – | – | – | –
C=CC(=O)N1CCC(N2CC(c3cc4c(c(CCC)n3)OCc3c(N5CCOCC5)ccnc3N4)C2)CC1 [Compound 348] | 47.9 | 3090 | 0.0543 | 5.99e-05 | 1100 | – | – | – | – | – | – | – | –
C=CC(=O)N1CC(C#Cc2ccc3c(c2)Nc2nccc(C4CCOCC4)c2CO3)C1 [Compound 33] | 603 | > 10000 | – | – | – | – | 0.15 | 0.000158 | 1050 | – | – | – | –
C=CC(=O)N1CC(N2CC(c3ccc4c(c3)Nc3nccc(C5CCOCC5)c3CO4)C2)C1 [Compound 167] | 105 | > 10000 | 0.0325 | 5.4e-05 | 1660 | – | – | – | – | – | – | – | –
C=CC(=O)N1CC(N2CCC(c3ccc4c(c3)Nc3nccc(N5CCOC[C@@H]5C)c3CO4)CC2)C1 [Compound 63] | 288 | > 10000 | 0.0857 | 7.59e-05 | 885 | – | – | – | – | – | – | – | –
C#CCCN(C)C/C=C/C(=O)N1CC(N2CCC(c3cc(C)c4c(c3)Nc3nccc(N5CCOCC5)c3CO4)CC2)C1 [Compound 122] | 69.2 | > 10000 | – | – | – | 1660 | – | – | – | – | – | – | –
CC#CC(=O)N1CCC(N2CC(c3cc4c(c(C#N)n3)OCc3c(-c5cnn(C)c5)ccnc3N4)C2)C1 (stereo not shown) [Compound 529] | 1740 | > 10000 | 0.0408 | 1.66e-05 | 409 | – | – | – | – | – | – | – | –
CC#CC(=O)N1CC(N2CCC(c3ccc4c(c3)Nc3nccc(C5CCOCC5)c3CO4)CC2)C1 [Compound 269] | 162 | > 10000 | 0.103 | 4.28e-05 | 417 | – | – | – | – | – | – | – | –
C#CCCN(C)C/C=C/C(=O)N1CC(N2CCC(c3ccc4c(c3)Nc3nccc(N5CCOCC5)c3C(C)O4)CC2)C1 (stereo not shown) [Compound 146] | 214 | > 10000 | 0.0285 | 5.53e-05 | 1940 | – | – | – | – | – | – | – | –
C=CC(=O)N1CCC2(CC1)CC(Cc1ccc3c(c1)Nc1nccc(C4CCOCC4)c1CO3)C2 [Compound 64] | > 10000 | > 10000 | 0.445 | 1.43e-05 | 32 | – | – | – | – | – | – | – | –
CC#CC(=O)N1CC(N2CCC(c3cc4c(c(C)n3)O[C@H](C)c3c(N5CCOCC5)ccnc3N4)CC2)C1 (single isomer, unassigned) [Compound 510] | – | – | 0.052 | – | – | – | – | – | – | 6.72 | <5 | 3.092e-05 | 594.812
